In one data set the target is T1, hAPJ (Homo sapiens, UniProt P35414).
T1 sequence (P35414 1-380): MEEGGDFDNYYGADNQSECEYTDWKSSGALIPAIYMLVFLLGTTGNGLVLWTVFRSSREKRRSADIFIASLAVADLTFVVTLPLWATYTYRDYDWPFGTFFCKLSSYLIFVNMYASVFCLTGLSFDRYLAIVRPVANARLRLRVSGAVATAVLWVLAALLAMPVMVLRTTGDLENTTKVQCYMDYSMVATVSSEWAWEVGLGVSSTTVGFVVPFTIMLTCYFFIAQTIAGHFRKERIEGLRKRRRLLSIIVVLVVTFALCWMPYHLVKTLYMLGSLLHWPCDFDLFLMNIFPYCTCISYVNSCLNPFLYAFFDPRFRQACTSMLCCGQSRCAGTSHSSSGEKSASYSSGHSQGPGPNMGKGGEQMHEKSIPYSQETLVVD
The experiment in a line: hAPJ Calcium Flux Assay. The class given is cell-based. To be noted: Chem-5 APJ stable cells, FLIPR calcium flux; read-out: hAPJ Ca2+ Flux EC50. As for the experimental part: Chem-5 APJ stable cells (Millipore # HTS068C) were plated in 384-well format with 10,000 cells/well in 25 ul growth media, then grown 24 hours in a 37° C. tissue culture incubator. One hour before the assay, 25 ul/well FLIPR Calcium 4 dye (Molecular Devices R8142) with 2.5 mM probenecid was added, and cells were incubated one hour in a 37° C. tissue culture incubator. Peptides were solubilized in HBSS, HEPES & 0.1% BSA buffer, and serially-diluted 10-fold, from 50 uM to 5 pM, in triplicate. FLIPR Tetra was used to add peptide to the cells with dye (1:5, for final peptide concentrations ranging from 10 uM to 1 pM). FLIPR dye inside the cells emitted fluorescence after binding to calcium, while fluorescence from outside the cells was masked. Fluorescence was measured using 470-495 excitation and 515-575 emission wavelengths on the FLIPR Tetra. Readings were done for 3 minutes total, beginning 10 seconds before the peptide addition. Maximum-minimum values were calculated and plotted for each peptide concentration, and GraphPad prism software was used to calculate EC50 values at the curve inflection points, for calcium flux stimulation by peptides.
A general note: A change in cytosolic calcium serves as a functional read-out for many receptors and channels.

The nature of a further data set: in vitro. To be noted: rat, plasma, Surrogate activity-based Plasma stability t½.

Data on 15 compounds can be found in patent US9683018B2, “Disulfide cyclic polypeptides for the treatment of heart failure” (priority 2013, dated 2017).

SMILES strings stand for the structures. Bridge positions count the residues as written; N and C are the ends. Square brackets hold non-standard residues; d marks the D form. Peptide text beside a SMILES is read from it. pGlu = O=C1CC[C@@H](C(=O)O)N1; d(hCys) = N[C@H](CCS)C(=O)O; dNle = CCCC[C@@H](N)C(=O)O; hCys = N[C@@H](CCS)C(=O)O; Nle = CCCC[C@H](N)C(=O)O; Aib = CC(C)(N)C(=O)O

Protocol for in vitro: The calcium flux protocol described above was followed, with the following changes. The peptides were also incubated with 5% rat plasma (Bioreclamation # [sequence]-M, Na Heparin-treated). Readings were taken at time points t0 and t24 hrs, after incubation in a 37° C. tissue culture incubator. Peptide plasma half-life in minutes was estimated by calculating the following:
2) Calculate slope of value above and

Regarding `CCCC[C@@H]1NC(=O)[C@@H]2CCCN2C(=O)CNC(=O)[C@H](CCCCN)NC(=O)[C@@H](NC(=O)[C@H](CO)NC(=O)[C@H](CC(C)C)NC(=O)[C@H](CCCNC(=N)N)NC(=O)[C@@H]2CCCN2C(=O)[C@H](CCCNC(=N)N)NC(=O)[C@@H]2CCC(=O)N2)CSSCC[C@H](C(=O)N[C@@H](Cc2ccccc2)C(=O)O)NC1=O` [Example 4, pE-R-P-R-L-S-C*-K-G-P-Nle-(D-hC)*-F-OH] ([pGlu]RPRLSCKGP[Nle][d(hCys)]F-OH; disulfide 7-12), the EC50 on hAPJ worked out at 406 nM. In “in vitro”, the half-life worked out at 0.403 h.
The like results for `CCCC[C@@H]1NC(=O)[C@@H]2CCCN2C(=O)[C@@H](NC(=O)[C@H](CCCCN)NC(=O)C(C)(C)NC(=O)[C@@H](C)NC(=O)[C@H](CC(C)C)NC(=O)[C@H](CCCNC(=N)N)NC(=O)[C@@H]2CCCN2C(=O)[C@H](CCCNC(=N)N)NC(=O)[C@@H]2CCC(=O)N2)CSSC[C@@H](C(=O)N[C@H](Cc2ccccc2)C(=O)O)NC1=O` [Example 19, pE-R-P-R-L-a-Aib-K-C*-P-Nle-C*-f-OH] ([pGlu]RPRL[dA][Aib]KCP[Nle]C[dF]-OH; disulfide 9-12) were, in that order, 72.3 nM and 36.4 h.
`CCCC[C@@H]1NC(=O)[C@@H]2CCCN2C(=O)[C@@H](NC(=O)[C@H](CCCCN)NC(=O)[C@H](Cc2c[nH]cn2)NC(=O)[C@@H](CO)NC(=O)[C@H](CC(C)C)NC(=O)[C@H](CCCNC(=N)N)NC(=O)[C@@H]2CCCN2C(=O)[C@H](CCCNC(=N)N)NC(=O)[C@@H]2CCC(=O)N2)CSSC[C@@H](C(=O)N[C@H](Cc2ccccc2)C(=O)O)NC1=O` [Example 21, pE-R-P-R-L-s-H-K-C*-P-Nle-C*-f-OH] ([pGlu]RPRL[dS]HKCP[Nle]C[dF]-OH; disulfide 9-12): the EC50 on hAPJ came to 9.7 nM. In the data set “in vitro”, this compound returned a half-life of 8.88 h.
Turning to `CCCC[C@@H]1NC(=O)[C@@H]2CCCN2C(=O)[C@@H](NC(=O)[C@H](CCCCN)NC(=O)[C@@H](C)NC(=O)[C@H](CO)NC(=O)[C@H](CC(C)C)NC(=O)[C@H](CCCNC(=N)N)NC(=O)[C@@H]2CCCN2C(=O)[C@H](CCCNC(=N)N)NC(=O)[C@@H]2CCC(=O)N2)CSSC[C@@H](C(=O)N[C@H](Cc2ccccc2)C(=O)O)NC1=O` [Example 16, pE-R-P-R-L-S-a-K-C*-P-Nle-C*-f-OH] ([pGlu]RPRLS[dA]KCP[Nle]C[dF]-OH; disulfide 9-12), the EC50 on hAPJ came out at 33.2 nM. In addition, the half-life in “in vitro” is 5.38 h.
For the compound `CCCC[C@@H]1NC(=O)[C@@H]2CCCN2C(=O)CNC(=O)[C@H](CCCCN)NC(=O)[C@H](NC(=O)[C@H](CO)NC(=O)[C@H](CC(C)C)NC(=O)[C@H](CCCNC(=N)N)NC(=O)[C@@H]2CCCN2C(=O)[C@H](CCCNC(=N)N)NC(=O)[C@@H]2CCC(=O)N2)CSSCC[C@H](C(=O)N[C@@H](Cc2ccccc2)C(=O)O)NC1=O` [Example 5, pE-R-P-R-L-S-c*-K-G-P-Nle-(D-hC)*-F-OH] ([pGlu]RPRLS[dC]KGP[Nle][d(hCys)]F-OH; disulfide 7-12), on hAPJ, the EC50 was determined as 981 nM. In the data set “in vitro”, this compound had a half-life of 23.9 h.
For the compound `CCCC[C@H]1NC(=O)[C@@H]2CCCN2C(=O)CNC(=O)[C@H](CCCCN)NC(=O)[C@H](Cc2c[nH]cn2)NC(=O)[C@H](CO)NC(=O)[C@@H](NC(=O)[C@H](CCCNC(=N)N)NC(=O)[C@@H]2CCCN2C(=O)[C@H](CCCNC(=N)N)NC(=O)[C@@H]2CCC(=O)N2)CCSSC[C@@H](C(=O)N[C@H](Cc2ccc(O)cc2)C(=O)O)NC1=O` [Example 2, pE-R-P-R-hC*-S-H-K-G-P-(D-Nle)-C*-y-OH] ([pGlu]RPR[hCys]SHKGP[dNle]C[dY]-OH; disulfide 5-12), on hAPJ, the EC50 is 154 nM. Also, the half-life in “in vitro” was determined as 0.867 h.
As to `CCCC[C@@H]1NC(=O)[C@@H]2CCCN2C(=O)CNC(=O)[C@H](CCCCN)NC(=O)[C@H](NC(=O)[C@H](CO)NC(=O)[C@H](CC(C)C)NC(=O)[C@H](CCCNC(=N)N)NC(=O)[C@@H]2CCCN2C(=O)[C@H](CCCNC(=N)N)NC(=O)[C@@H]2CCC(=O)N2)CCSSCC[C@H](C(=O)N[C@@H](Cc2ccccc2)C(=O)O)NC1=O` [Example 7, pE-R-P-R-L-S-(D-hC)*-K-G-P-Nle-(D-hC)*-F-OH] ([pGlu]RPRLS[d(hCys)]KGP[Nle][d(hCys)]F-OH; disulfide 7-12), the EC50 on hAPJ is 781 nM. The compound further gave a half-life in “in vitro” of 2.01 h.
The like results for `CCCC[C@@H]1NC(=O)[C@@H]2CCCN2C(=O)CNC(=O)[C@H](CCCCN)NC(=O)[C@@H](NC(=O)[C@H](CO)NC(=O)[C@H](CC(C)C)NC(=O)[C@H](CCCNC(=N)N)NC(=O)[C@@H]2CCCN2C(=O)[C@H](CCCNC(=N)N)NC(=O)[C@@H]2CCC(=O)N2)CSSC[C@H](C(=O)N[C@@H](Cc2ccccc2)C(=O)O)NC1=O` [Example 11, pE-R-P-R-L-S-C*-K-G-P-Nle-c*-F-OH] ([pGlu]RPRLSCKGP[Nle][dC]F-OH; disulfide 7-12) were, in that order, 113 nM and 2.28 h.
Taken in the same sequence, the figures for `CCCC[C@@H]1NC(=O)[C@@H]2CCCN2C(=O)[C@@H](NC(=O)[C@H](CCCCN)NC(=O)C(C)(C)NC(=O)[C@H](CO)NC(=O)[C@H](CC(C)C)NC(=O)[C@H](CCCNC(=N)N)NC(=O)[C@@H]2CCCN2C(=O)[C@H](CCCNC(=N)N)NC(=O)[C@@H]2CCC(=O)N2)CSSC[C@@H](C(=O)N[C@H](Cc2ccccc2)C(=O)O)NC1=O` [Example 20, pE-R-P-R-L-S-Aib-K-C*-P-Nle-C*-f-OH] ([pGlu]RPRLS[Aib]KCP[Nle]C[dF]-OH; disulfide 9-12) were 6.1 nM and 5.52 h.
The like results for `CCCC[C@@H]1NC(=O)[C@@H]2CCCN2C(=O)CNC(=O)[C@H](CCCCN)NC(=O)[C@H](NC(=O)[C@H](CO)NC(=O)[C@H](CC(C)C)NC(=O)[C@H](CCCNC(=N)N)NC(=O)[C@@H]2CCCN2C(=O)[C@H](CCCNC(=N)N)NC(=O)[C@@H]2CCC(=O)N2)CCSSC[C@@H](C(=O)O)NC1=O` [Example 10, pE-R-P-R-L-S-(D-hC)*-K-G-P-Nle-C*-OH] ([pGlu]RPRLS[d(hCys)]KGP[Nle]C-OH; disulfide 7-12) were, in that order, 976 nM and 1.64 h.
In the case of `CCCC[C@@H]1NC(=O)[C@@H]2CCCN2C(=O)CNC(=O)[C@H](CCCCN)NC(=O)[C@@H](NC(=O)[C@H](CO)NC(=O)[C@H](CC(C)C)NC(=O)[C@H](CCCNC(=N)N)NC(=O)[C@@H]2CCCN2C(=O)[C@H](CCCNC(=N)N)NC(=O)[C@@H]2CCC(=O)N2)CSSCC[C@@H](C(=O)N[C@@H](Cc2ccccc2)C(=O)O)NC1=O` [Example 12, pE-R-P-R-L-S-C*-K-G-P-Nle-hC*-F-OH] ([pGlu]RPRLSCKGP[Nle][hCys]F-OH; disulfide 7-12), the EC50 on hAPJ is 81.7 nM. Moreover, the half-life in the data set “in vitro” amounted to 1.17 h.
The like results for `CCCC[C@@H]1NC(=O)[C@@H]2CCCN2C(=O)CNC(=O)[C@H](CCCCN)NC(=O)[C@@H](NC(=O)[C@H](CO)NC(=O)[C@H](CC(C)C)NC(=O)[C@H](CCCNC(=N)N)NC(=O)[C@@H]2CCCN2C(=O)[C@H](CCCNC(=N)N)NC(=O)[C@@H]2CCC(=O)N2)CCSSCC[C@@H](C(=O)N[C@@H](Cc2ccccc2)C(=O)O)NC1=O` [Example 13, pE-R-P-R-L-S-hC*-K-G-P-Nle-hC*-F-OH] ([pGlu]RPRLS[hCys]KGP[Nle][hCys]F-OH; disulfide 7-12) were, in that order, 760 nM and 1.73 h.
Taken in the same sequence, the figures for `CCCC[C@@H]1NC(=O)[C@@H]2CCCN2C(=O)CNC(=O)[C@H](CCCCN)NC(=O)[C@@H](NC(=O)[C@H](CO)NC(=O)[C@H](CC(C)C)NC(=O)[C@H](CCCNC(=N)N)NC(=O)[C@@H]2CCCN2C(=O)[C@H](CCCNC(=N)N)NC(=O)[C@@H]2CCC(=O)N2)CCSSCC[C@H](C(=O)N[C@@H](Cc2ccccc2)C(=O)O)NC1=O` [Example 6, pE-R-P-R-L-S-hC*-K-G-P-Nle-(D-hC)*-F-OH] ([pGlu]RPRLS[hCys]KGP[Nle][d(hCys)]F-OH; disulfide 7-12) were 92.8 nM and 0.208 h.
The like results for `CCCC[C@@H]1NC(=O)[C@@H]2CCCN2C(=O)CNC(=O)[C@H](CCCCN)NC(=O)[C@H](NC(=O)[C@H](CO)NC(=O)[C@H](CC(C)C)NC(=O)[C@H](CCCNC(=N)N)NC(=O)[C@@H]2CCCN2C(=O)[C@H](CCCNC(=N)N)NC(=O)[C@@H]2CCC(=O)N2)CCSSCC[C@@H](C(=O)N[C@@H](Cc2ccccc2)C(=O)O)NC1=O` [Example 9, pE-R-P-R-L-S-(D-hC)*-K-G-P-Nle-hC*-F-OH] ([pGlu]RPRLS[d(hCys)]KGP[Nle][hCys]F-OH; disulfide 7-12) were, in that order, 1030 nM and 0.95 h.
`CCCC[C@@H]1NC(=O)[C@@H]2CCCN2C(=O)CNC(=O)[C@H](CCCCN)NC(=O)[C@H](NC(=O)[C@H](CO)NC(=O)[C@H](CC(C)C)NC(=O)[C@H](CCCNC(=N)N)NC(=O)[C@@H]2CCCN2C(=O)[C@H](CCCNC(=N)N)NC(=O)[C@@H]2CCC(=O)N2)CCSSC[C@@H](C(=O)N[C@@H](Cc2ccccc2)C(=O)O)NC1=O` [Example 8, pE-R-P-R-L-S-(D-hC)*-K-G-P-Nle-C*-F-OH] ([pGlu]RPRLS[d(hCys)]KGP[Nle]CF-OH; disulfide 7-12): the EC50 at hAPJ worked out at 613 nM. In “in vitro”, this compound registered a half-life of 1.29 h.

Broadly, the EC50 is the concentration at which the effect is half-maximal. The term half-life denotes the time needed for the level to fall by half in the phase considered. Read a low half-life as rapid decline.
